Earlier results in patent publication US7872030B2, “Use of 2-[5-(4-fluorophenyl)-3-pyridylmethylaminomethyl]-chromane and its physiologically acceptable salts” (Merck Patent GmbH, priority 2001, dated 2011).

Tested on: advanced Parkinson patients
Conditions: cited from earlier work

O=C1CC2(CCCC2)CC(=O)N1CCCCN1CCN(c2ncccn2)CC1 [buspirone]
anti-dyskinetic properties: moderate anti-dyskinetic properties
